# Reference: ChEMBL document CHEMBL1641487, “Aspergilones A and B, two benzylazaphilones with an unprecedented carbon skeleton from the gorgonian-derived fungus Aspergillus sp” (Bioorg Med Chem Lett, 2011)
# Legend:
# MCF7 = experiment: Cytotoxicity against human MCF7 cells; assay type: functional, cell-based
# Amphibalanus amphitrite = experiment: Antifouling activity against Balanus amphitrite assessed as larval settlement barnacle; assay type: functional, organism-based
# A549 = experiment: Cytotoxicity against human A549 cells; assay type: functional, cell-based
# HL-60 = experiment: Cytotoxicity against human HL60 cells; assay type: functional, cell-based
SMILES,IC50 (MCF7) [µg/mL],EC50 (Amphibalanus amphitrite) [µg/mL],IC50 (A549) [µg/mL],IC50 (HL-60) [µg/mL]
CC1=C2C(=CO[C@@H](C)[C@@H]2C)C(=O)C(Cc2ccccc2)(Cc2ccccc2)C1=O [ASPERGILONE A],25,25,37,3.2
CC1=C2C(=CO[C@@H](C)[C@@H]2C)C(=O)[C@@](Cc2ccccc2)(C[C@]2(Cc3ccccc3)C(=O)C3=CO[C@@H](C)[C@H](C)C3=C(C)C2=O)C1=O [ASPERGILONE B],> 50,,> 50,> 50
